Entries after “also recorded” stand apart in the source; their conditions may differ.

Assay [1] in a line: DPPH radical scavenging rate (DPPH Antioxidant Assay Kit). The note with it: 5 wt %, 1 wt % and 0.2 wt % aqueous solutions; 30 minutes at 25° C.; absorbance at 517 nm. An excerpt: Methods for measuring oxidation inhibiting effects by radical scavenging rate evaluation are known. The present inventors therefore examined oxidation inhibiting effects of the aforementioned candidate substances at different concentrations, by the following procedure using a DPPH Antioxidant Assay Kit (Dojindo Laboratories).
The candidate substances of Example 1 were used as 5 wt %, 1 wt % and 0.2 wt % aqueous solutions. Blank 1, Blank 2, Sample and Sample Blank Solution listed in Table 3 were prepared by the manufacturer's protocol described in general below, and the radical scavenging rates were calculated.
• 1. Each candidate substance was loaded into a 96 well plate as a 5 wt %, 1 wt % or 0.2 wt % aqueous solution. • 2. Water was added to Blank 1 and Blank 2 at 20 μl each. • 3. Assay Buffer was added at 80 μl to each well. • 4. After adding 100 μl of ethanol to Blank 2 and the Sample blank, it was thoroughly mixed by pipetting. • After adding 100 μl of DPPH working solution to the sample and Blank1, it was thoroughly mixed by pipetting. • 6. The plate was incubated for 30 minutes at 25° C. in a dark environment. • 7. The absorbance at 517 nm was measured with a plate reader (Spectramax 250, Molecular Devices). • 8. The radical scavenging rate (%) of each sample was calculated by the following formula 3.
Radical scavenging rate (%)=[…]×100 Formula 3:
(ACS=Blank1−Blank2, AS=Sample−Sample Blank)
Background: The DPPH test is a chemical assay of radical scavenging.

Assay [2] can be described thus: UPE count method (in vitro), linoleic acid mixture irradiated with blue light or UVA. The settings on record: for blue light oxidation-inhibiting effect (rate of change in blue light-induced UPE): 5 wt % aqueous solution of candidate in linoleic acid mixture, blue light 430 nm LED 6 mW/cm^2, 10 minutes, UPE integrated for 300 seconds; for inhibiting effect against blue light oxidation compared with inhibiting effect against oxidation by UVA (UPE): linoleic acid mixture, blue light 430 nm vs UVA 300 to 400 nm. The protocol: The candidate substances listed in Table 1 were added to ultrapure water to prepare 5 wt % aqueous solutions as samples.
The samples were prepared by mixing the substances in the following compositions with linoleic acid and oleic acid as biological components. As a control, ultrapure water was used instead of a 5% aqueous solution of the candidate substance.
A 2 mL portion of the sample prepared by the method described above was added to a plastic container and irradiated with 6 mW/cm^2 blue light (430 nm LED, CL-H1-430-9-1, Asahi Spectra Co., Ltd.) using an LED light source (CL-1501, Asahi Spectra Co., Ltd.), for a period of 10 minutes. The experiment was conducted while shielded, to exclude the effects of light of other wavelengths. For the control, ultrapure water was added instead of the starting material aqueous solution.
The irradiated sample was transferred to a quartz glass container and set in the black box of a photon counter (Tohoku Electronic Industrial Co.). Photon counting of UPE was initiated one minute after irradiation was complete. UPE was detected by a built-in photomultiplier tube (PMT, R2257P, Hamamatsu Photonics, K.K.) in the photon counter, with measurement being conducted while shielded.
The integrated value of UPE intensity for 300 seconds after the start of UPE measurement was determined and the rate of change in UPE was calculated by formula 2, to evaluate the oxidative stress inhibiting effect.
Rate of change in UPE=(UPE intensity of material added sample−UPE intensity of control sample (non-irradiated))−(UPE intensity of control sample−UPE intensity of control sample (non-irradiated)) Formula 2: […]

Test in assay [3]: as above
The note with it: 5 wt % aqueous solution in linoleic acid mixture; UVA lamp 300 to 400 nm 3.5 mW/cm^2.

The next assay relates to human skin tissue. The assay is described as follows: Measurement of oxidative stress by UPE imaging on human skin tissue. The settings on record: 20 μL of 5% aqueous solution on stratum corneum side, 40 minutes; blue light 430 nm 6 mW/cm^2, 10 minutes. As for the experimental part: A 20 μL aqueous solution of 5% hypotaurine was applied to the center of the stratum corneum side of human skin tissue (KAC Co., dorsal region), and allowed to stand for 40 minutes while shielded.
After irradiation with blue light (430 nm LED, 6 mW/cm^2) for 10 minutes, the hypotaurine aqueous solution was wiped off and immediately observed by UPE imaging using a high-sensitivity cooled CCD camera (850S CCD42-40, Spectral Instruments Inc.), while shielded (photographing time: 10 minutes).

`O=C1O[C@H]([C@@H](O)CO)C(O)=C1O` [L(+)-ascorbic acid, L(+)-Ascorbic acid]: the “DPPH radical scavenging power (radical scavenging rate)” value (“DPPH radical scavenging power” for short) in assay [1] was “high radical scavenging power”. Besides, the “blue light oxidation-inhibiting effect (rate of change in blue light-induced UPE)” value in assay [2] is “high blue light oxidation-inhibiting effect; also recorded: excellent blue light oxidation-inhibiting effects”.

`O=C1O[C@H]([C@@H](O)CO)C(O)=C1O[C@H]1O[C@H](CO)[C@@H](O)[C@H](O)[C@H]1O` [L-ascorbic acid glucoside, L-Ascorbic acid glucoside, reference compound]: in assay [1], the “DPPH radical scavenging power” value was “high radical scavenging power”. Also, the results for the “blue light oxidation-inhibiting effect (rate of change in blue light-induced UPE)” value in assay [2] and in assay [2] (listed as ascorbic acid glucoside) were “not found to have significant blue light oxidation-inhibiting effects” and “little of the blue light oxidation-inhibiting effect”, respectively.

For the molecule `N[C@@H](CS)C(=O)O` [L-cysteine, L-Cysteine, reference compound], the “DPPH radical scavenging power” value in assay [1] is “high radical scavenging power”. For the same molecule, the results for the “blue light oxidation-inhibiting effect (rate of change in blue light-induced UPE)” value in assay [2] and in assay [2] (listed as cysteine) were “not found to have significant blue light oxidation-inhibiting effects” and “little of the inhibiting effect against blue light oxidation”, respectively.

`CC(C)(CO)[C@@H](O)C(=O)NCCC(=O)NCCSS(=O)(=O)[O-].CC(C)(CO)[C@@H](O)C(=O)NCCC(=O)NCCSS(=O)(=O)[O-].[Ca+2]` [calcium pantetheine-S-sulfonate]: the “UV oxidation inhibiting effect (rate of change in UV light-induced UPE)” value in assay [3] is recorded as “UV oxidation inhibiting effect was found”. The “DPPH radical scavenging power” value in assay [1] is “High radical scavenging power was not observed”. Further, the “blue light oxidation-inhibiting effect (rate of change in blue light-induced UPE)” value in assay [2] was “high blue light oxidation-inhibiting effect; also recorded: excellent blue light oxidation-inhibiting effects”.

As to `NCCS(=O)O` [hypotaurine, Hypotaurine], in the assay with human skin tissue, the “UPE intensity after blue light irradiation (UPE imaging)” value was “lowered”. In addition, in assay [1], the “DPPH radical scavenging power” value is recorded as “high radical scavenging power”. In assay [2], the “blue light oxidation-inhibiting effect (rate of change in blue light-induced UPE)” value is listed as “high inhibiting effect against blue light oxidation; also recorded: excellent blue light oxidation-inhibiting effects” and the “inhibiting effect against blue light oxidation compared with inhibiting effect against oxidation by UVA (UPE)” value is reported as “higher than the inhibiting effect against oxidation by UVA”.

Regarding `NCCS(=O)(O)=S` [thiotaurine, Thiotaurine], in assay [1], the “DPPH radical scavenging power” value was “High radical scavenging power was not observed”. Further, in assay [2], the “blue light oxidation-inhibiting effect (rate of change in blue light-induced UPE)” value is on record as “high inhibiting effect against blue light oxidation; also recorded: excellent blue light oxidation-inhibiting effects” and the “inhibiting effect against blue light oxidation compared with inhibiting effect against oxidation by UVA (UPE)” value is recorded as “higher than the inhibiting effect against oxidation by UVA”.

The values are drawn from patent publication US20230414564A1, “BLUE LIGHT OXIDATION INHIBITOR AND SCREENING METHOD FOR SAME” (SHISEIDO COMPANY, LTD., priority 2020, published 2023).
